Results published in BigSolDB 2.1.

Cc1ccc(C(=O)O)cc1
solubility (mole fraction)
Conditions	in acetic acid	in methanol
283.15 K	0.043	0.02
288.15 K	0.048	0.021
293.15 K	0.053	0.023
298.15 K	0.059	0.027
303.15 K	0.064	0.029
308.15 K	0.07	0.033
313.15 K	0.077	0.038
318.15 K	0.085	0.041
323.15 K	0.095	0.047
328.15 K	0.103	0.054
333.15 K	0.113	0.061
